Earlier results in publication PMC6768323, “Adverse Maternal, Fetal, and Postnatal Effects of Hexafluoropropylene Oxide Dimer Acid (GenX) from Oral Gestational Exposure in Sprague-Dawley Rats” (Environmental Health Perspectives, 2019).
Read-outs that look alike come from different tables or passages of the source.

Tested on: rat
Conditions: cited from earlier work

O=S(=O)(O)C(F)(F)C(F)(F)C(F)(F)C(F)(F)C(F)(F)C(F)(F)C(F)(F)C(F)(F)F [PFOS, perfluorooctane sulfonate]
dose with increased neonatal mortality (ref Lau et al. 2003): ≥ 3 mg/kg
dose with lower pup body weights (ref Lau et al. 2003): ≥ 2 mg/kg
dose with neonatal mortality (ref Luebker et al. 2005a, 2005b): ≥ 1.6 mg/kg
dose with lower pup body weights (ref Luebker et al. 2005b): ≥ 0.4 mg/kg
